How the values were obtained:
Rodents [1] = assay: Elevated plus maze (EPM) after microinjection; type: in vivo; settings: for time in the center quadrant of EPM / time in the closed arms of EPM / time in the open arms of EPM: acute microinjection, versus controls
Text: (§1) This is also in the same direction as the FGF2 data, consistent with the fact that both FGF2 and NCAM interact with the FGF receptor.
(§2) These observations are nevertheless consistent with the conclusions drawn from the microinjection studies above.

Rodents [2] = assay: Forced swim test (FST) after microinjection; type: in vivo; settings: acute microinjection, versus controls
Text: as §1, §2

[3] = tested on: hippocampal gene expression; assay: Hippocampal gene expression in adults after early postnatal FGF2 (histochemical and RNA expression assays); type: in vivo, rat; settings: adult rats, FGF2 20 ng/g s.c. the day after birth
Procedure: (§3) Methods. Sprague-Dawley rats were injected with either vehicle or FGF2 (20 ng/g, s.c.) the day after birth and sacrificed after Morris water maze testing as adults. We assessed changes in gene expression using both a candidate approach and a gene discovery approach with laser-capture microdissection of the dentate gyrus followed by microarray analyses.

[4] = tested on: FGFR2 and FGFR3 exon IIIc:IIIb splice variant ratio; assay: Real time RT-PCR of exon IIIc:IIIb splice variant ratio in frontal cortex; type: in vivo, rat; settings: FGF2 5 ng/g i.p. every 48 hours for three weeks, NS or S group, P>0.1
Procedure: Animals. Twenty-four male Sprague-Dawley rats weighing 220-250g were ordered from Charles River (Wilmington, Mass.) and remained undisturbed for one week to acclimatize to housing conditions. The animals were housed in pairs on a 12 h light-dark cycle (lights on 6:00 A.M.) with food and water available ad libitum. All experiments were conducted in accordance with the NIH Guide for the Care and Use of Animals and the University Committee on the Use and Care of Animals.
FGF2 injection treatments and chronic unpredictable stress (CUS) conditions. […]
Total RNA extraction. […] Using the Bioanalyzer's concentration readings, the samples were normalized to 25 ng/μL of total RNA per subject and stored at −80° C.
cDNA synthesis. cDNA was synthesized using the iScript cDNA Synthesis Kit (Bio-Rad, Hercules, Calif.). […] The double-stranded cDNA solutions were then analyzed for quality and concentration using Invitrogen's Quant-iT PicoGreen dsDNA kit. […] The fluorescently labeled samples were analyzed with a 1420 Victor^2 Multilabel Counter (EG&G Wallac, Wellesley, Mass.) using the basic Fluorescein protocol. […]
Real time RT-PCR primer design. […] Exon sequences were analyzed using NCBI's nucleotide and protein BLAST and were matched with their corresponding protein products within the receptor structures (FIG. 11). […]

rats = assay: Elevated plus-maze (EPM) and light-dark (LD) anxiety test after chronic FGF2; type: in vivo, rat; settings: FGF2 5 ng/g i.p. every 48 hours for 3 weeks
Procedure: Anxiety disorders have a high comorbidity with other neuropsychiatric disorders including Major Depression (MD). […] Rats were placed into “high anxiety” (LR) or “low anxiety” (HR) groups based on their behavior in a variety of motor and behavioral tests. Both groups of animals were administered either FGF2 (5 ng/g) or vehicle by intraperitoneal injection every 48 hours for 3 weeks. One day after the last FGF2 injection, all animals were tested in the elevated plus-maze (EPM) and light-dark (LD) anxiety test.
The apparatus for the EPM test is constructed of black Plexiglass with […] (70 cm from the floor, 45 cm long, and 12 cm wide). Illumination is provided by a 40-watt desk lamp facing a wall and placed behind one of the closed arms. The scientists put the animal inside the system. Animals that are less anxious spend more time in the open arms whereas animals that are more anxious spend less time in the open arms.
The LD test is conducted in a 30×60×30-cm Plexiglas shuttle box with a translucent cover. Each box is divided into two equal-sized compartments by a wall with a 12 cm-wide open door. One compartment is painted white and brightly illuminated, and the other is painted black with very dim light. The time each rat spends in each compartment is monitored by rows of five photocells located 2.5 cm above the grid floor of each compartment. […]

Sprague-Dawley rats [5] = assay: Forced swim testing after chronic FGF2; type: in vivo, rat; settings: chronic FGF2 administration
Procedure: FGF2 injection treatments and chronic unpredictable stress (CUS) conditions. Half of the rats (n=12) were administered vehicle (0.1M PBS with 100 μg/mL bovine serum albumin), and the other half (n=12) were administered human recombinant FGF2 dissolved in vehicle in 5 ng/g dosages (Sigma, St. Louis, Mo.) every 48 hours for three weeks. All treatments were injected intra-peritonealy. During the same three week period as the FGF2 treatments, the vehicle group was either handled (n=6) or exposed to CUS (n=6). Likewise, the FGF2 injected group was either handled (n=6) or exposed to CUS (n=6). The animals were exposed to the following chronic unpredictable stressors (described in Isgor et al. (2004)): ether (30 s), cold (2 h), noise (15 m), isolation (24 h), or restraint (2 h). The stressors were randomized to avoid habituation; sessions occurred once each day in either the morning or afternoon. The 2×2 (condition by treatment) design divided the subjects into nonstressed/vehicle (NS/V), nonstressed/FGF2 injection (NS/F), stressed/vehicle (S/V), and stressed/FGF2 injection (S/F) groups.
Forced swim testing. To test for possible FGF2 injection effects on anti-depressant behavior for other studies, all animals were subjected to forced swim testing according to Lucki (1997) 24 h after the termination of the FGF2 treatments and CUS conditions.

Sprague-Dawley rats [6] = assay: Morris water maze in adults after early postnatal FGF2; type: in vivo, rat; settings: FGF2 20 ng/g s.c. the day after birth, tested as adults
Procedure: as §3

EVYVVAENQQGKSKA [NCAM] was tested, and the “time in the center quadrant of EPM” value (Rodents [1]) was “significantly less time”, the “time in the closed arms of EPM” value (Rodents [1]) was “more time (although not signficantly more time)” and the “time in the open arms of EPM” value (Rodents [1]) was “less time”. The “depression-like behavior (FST)” value (Rodents [2]) was “less depression-like behavior” and the “immobility in FST” value (Rodents [2]) was “less immobility”.
“FGF2: human recombinant FGF2 (Sigma), fibroblast growth factor 2” was tested, and the “expression of CCK” value [3] was “increased”, the “expression of GAP-43” value [3] was “increased” and the “expression of NCAM” value [3] was “decreased”. The “expression of Rgs4” value [3] was “increased”, the “expression of SST” value [3] was “increased” and the “expression of Vgf” value [3] was “increased”. The “expression of trkB” value [3] was “increased”, the “effect on exon IIIc:IIIb ratio” value [4] was “did not alter” and the anxiety versus vehicle (rats) was “less anxious”. For the same substance, the “anxiety-reducing effects in innately more anxious (LR) rats” value (rats; LR versus HR) was “more pronounced”, the “anxiety-like behavior (EPM)” value (Rodents [1]; acute injection) was “increased” and the “time in the closed arms of EPM” value (Rodents [1]) was “significantly more time”. For the same substance, the “time in the open arms of EPM” value (Rodents [1]) was “less time”, the depression-like behavior (Sprague-Dawley rats [5]) was “decreases depression-like behavior” and the “depression-like behavior (FST)” value (Rodents [2]) was “less depression-like behavior”. For the same substance, the “immobility in FST” value (Rodents [2]) was “less immobility”, the “swimming in FST” value (Rodents [2]) was “more swimming” and the “time to find a hidden platform in Morris Water maze test (average)” value (Sprague-Dawley rats [6]) was 20 s. The “performance in learning and memory tests” value (Sprague-Dawley rats [6]; versus vehicle) was “significantly better”.
In the case of “HFKDPKRLY [FGF system peptide inhibitor]”, the “time in the center quadrant of EPM” value (Rodents [1]) is reported as “significantly more time”, the “time in the closed arms of EPM” value (Rodents [1]) is reported as “less time” and the “time in the open arms of EPM” value (Rodents [1]) is reported as “equal time”. The “climbing in FST” value (Rodents [2]) was “significantly less climbing”, the “depression-like behavior (FST)” value (Rodents [2]) was “increased depression-like behavior” and the “immobility in FST” value (Rodents [2]) was “more immobility”. For the same substance, the “swimming in FST” value (Rodents [2]) was “less swimming”.
